We go through 11 compounds from ChEMBL document CHEMBL1201862, “PubChem BioAssay data set” (2004).

Some test systems named below: Hs-578T; HCT-116; MDA-MB-435; MCF7; UACC-257; OVCAR-8; OVCAR-5; ACHN; NCI-H522; SW-620; CAKI-1; NCI-H23; NCI/ADR-RES; TK-10; SK-MEL-28; HOP-92; A549; SN12C; SNB-75; UACC-62.
What all share (assay): growth of human tumour cells (NCI), 48 h

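Five concentrations, 48 hours, 96-well plates. GI50 marks 50% less growth.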 Calls of active or inactive are those of the source. No stated cut-off is given here; in the data, active = GI50 up to about 1.1 µM and inactive = higher.

With `CC1=NN(c2cccc(Cl)c2)C2(SCC(=O)N2c2nc3ccccc3s2)/C1=C\c1ccc(Cl)cc1` (centres undefined), the GI50 with Hs-578T was 19.4 µM (inactive); in the experiment with HCT-116, 16.3 µM (inactive); in the experiment on MDA-MB-435, 19.9 µM (inactive); in the experiment on MCF7 it was 22.2 µM (inactive); with UACC-257, 21.6 µM (inactive); in the experiment with OVCAR-8, 18.9 µM (inactive). The GI50 with OVCAR-5 was 20.2 µM (inactive); in the experiment on ACHN, 19.2 µM (inactive); in the experiment on NCI-H522, 20.3 µM (inactive); in the experiment with SW-620, 14.4 µM (inactive); in the experiment on CAKI-1, 18.3 µM (inactive); in the experiment with NCI-H23 it was 18.4 µM (inactive). Further, the GI50 in the experiment on NCI/ADR-RES is 38.8 µM (inactive); in the experiment with TK-10 it was 30.2 µM (inactive); in the experiment with SK-MEL-28, 24.5 µM (inactive); with HOP-92 it was 13.4 µM (inactive).
As for `C[C@@H](NC(=O)[C@@H]1C[C@]1(C)COC(=O)c1cc([N+](=O)[O-])cc([N+](=O)[O-])c1)c1cccc2ccccc12`, the GI50 in the experiment on Hs-578T was 20 µM (inactive); in the experiment with HCT-116 it was > 100 µM (inactive); in the experiment with MDA-MB-435 it was > 100 µM (inactive); in the experiment with MCF7, > 100 µM (inactive); in the experiment with UACC-257 it was > 100 µM (inactive); in the experiment on A549, > 100 µM (inactive). Moreover, the GI50 was > 100 µM (inactive) in the experiment with OVCAR-8; > 100 µM (inactive) with OVCAR-5; 33.7 µM (inactive) in the experiment on ACHN; > 100 µM (inactive) with SN12C; > 100 µM (inactive) with SW-620; > 100 µM (inactive) in the experiment with CAKI-1. For the same compound, the GI50 in the experiment with NCI-H23 is > 100 µM (inactive); with NCI/ADR-RES it was > 100 µM (inactive); in the experiment with SNB-75 it was 37.1 µM (inactive); in the experiment on TK-10 it was > 100 µM (inactive); with SK-MEL-28, > 100 µM (inactive); with UACC-62 it was 50 µM (inactive). The GI50 with HOP-92 was 80.2 µM (inactive).
With `O=C1Nc2ccc(Br)cc2/C1=N/c1ccc(Cl)cc1`, the GI50 is 33.6 µM (inactive) with Hs-578T; 14.3 µM (inactive) in the experiment with HCT-116; 2.87 µM (inactive) in the experiment on MDA-MB-435; 10.2 µM (inactive) in the experiment with MCF7; 18.1 µM (inactive) in the experiment with UACC-257; 25.4 µM (inactive) in the experiment on A549. The GI50 with OVCAR-8 is 11.7 µM (inactive); in the experiment with OVCAR-5, 18.2 µM (inactive); in the experiment on ACHN, 13.4 µM (inactive); in the experiment with NCI-H522 it was 7.66 µM (inactive); in the experiment on SN12C, 13 µM (inactive); with SW-620 it was 6.56 µM (inactive). For the same compound, the GI50 in the experiment with CAKI-1 was 7.1 µM (inactive); with NCI-H23 it was 30.2 µM (inactive); in the experiment on NCI/ADR-RES, 12.6 µM (inactive); in the experiment with TK-10, 21.8 µM (inactive); with SK-MEL-28, 23.3 µM (inactive); in the experiment with UACC-62, 0.237 µM (active). Moreover, the GI50 in the experiment on HOP-92 was 37.3 µM (inactive).
`O=C1c2cccc3cc([N+](=O)[O-])cc(c23)C(=O)N1O`: the GI50 in the experiment with Hs-578T was 38.7 µM (inactive); in the experiment with HCT-116 it was 27 µM (inactive); in the experiment on MDA-MB-435, 34.3 µM (inactive); in the experiment with MCF7 it was 24.8 µM (inactive); in the experiment with UACC-257, 33.7 µM (inactive); with A549 it was 33.6 µM (inactive). Also, the GI50 in the experiment on OVCAR-8 was 44.5 µM (inactive); in the experiment with OVCAR-5, 44.1 µM (inactive); in the experiment with ACHN, 28.1 µM (inactive); in the experiment on NCI-H522, 58.7 µM (inactive); in the experiment with SN12C it was 33.5 µM (inactive); with SW-620, 38.2 µM (inactive). Besides, the GI50 in the experiment with CAKI-1 was 31.7 µM (inactive); in the experiment with NCI-H23, 30.8 µM (inactive); in the experiment with NCI/ADR-RES it was 40.8 µM (inactive); in the experiment with TK-10, 25.9 µM (inactive); with SK-MEL-28, 45.8 µM (inactive); in the experiment on UACC-62, 23.9 µM (inactive). The GI50 in the experiment on HOP-92 is 57 µM (inactive).
Turning to `O=c1c2ccccc2sc2cccc(NCCCN3CCN(CCCNc4cccc5sc6ccccc6c(=O)c45)CC3)c12`, the GI50 in the experiment with Hs-578T is 52.7 µM (inactive); with HCT-116, > 100 µM (inactive); in the experiment with MDA-MB-435, > 100 µM (inactive); with MCF7 it was > 100 µM (inactive); with UACC-257, > 100 µM (inactive); in the experiment with A549 it was > 100 µM (inactive). Moreover, the GI50 in the experiment on OVCAR-5, in the experiment on ACHN, in the experiment on NCI-H522, in the experiment with SN12C, with SW-620 and with CAKI-1 was > 100 µM (inactive) each time. The GI50 is > 100 µM (inactive) in the experiment with NCI-H23; > 100 µM (inactive) in the experiment with NCI/ADR-RES; 19.5 µM (inactive) with SNB-75; > 100 µM (inactive) with TK-10; > 100 µM (inactive) with SK-MEL-28; 64.7 µM (inactive) in the experiment with UACC-62.
On to `Nc1cc(F)ccc1CC(=O)O`, for which the GI50 in the experiment on Hs-578T, in the experiment on HCT-116, with MDA-MB-435, in the experiment on MCF7, in the experiment with UACC-257 and with A549 was > 100 µM (inactive) each time. The GI50 in the experiment with OVCAR-8, in the experiment with OVCAR-5, in the experiment with ACHN, in the experiment on NCI-H522, with SN12C and in the experiment on SW-620 was > 100 µM (inactive) throughout. Moreover, the GI50 in the experiment with CAKI-1, in the experiment on NCI-H23, with NCI/ADR-RES, in the experiment on SNB-75, in the experiment on TK-10 and in the experiment on SK-MEL-28 was > 100 µM (inactive) each time. Also, the GI50 in the experiment on UACC-62 is > 100 µM (inactive).
Take `C=CC[C@H](C)CCC(=O)N1[C@H]2CC3CC[C@@]2(CS1(=O)=O)C3(C)C`: the GI50 in the experiment with Hs-578T was 30.6 µM (inactive); in the experiment with HCT-116, 48 µM (inactive); with MDA-MB-435, 47.2 µM (inactive); in the experiment with MCF7, 33.9 µM (inactive); in the experiment with UACC-257 it was 66.1 µM (inactive); with A549 it was 39.8 µM (inactive). Besides, the GI50 in the experiment with OVCAR-8 is 45.4 µM (inactive); in the experiment with OVCAR-5 it was > 100 µM (inactive); in the experiment with ACHN, 40.7 µM (inactive); with NCI-H522, 30.3 µM (inactive); in the experiment with SN12C, 85.5 µM (inactive); in the experiment on SW-620, 79.8 µM (inactive). Moreover, the GI50 with CAKI-1 is 80.4 µM (inactive); in the experiment on NCI-H23, 22.7 µM (inactive); in the experiment on NCI/ADR-RES, 44.2 µM (inactive); in the experiment with TK-10 it was > 100 µM (inactive); in the experiment with SK-MEL-28 it was > 100 µM (inactive); in the experiment on UACC-62, > 100 µM (inactive). In addition, the GI50 in the experiment with HOP-92 is > 100 µM (inactive).
Consider `CC(C)c1cc(CN(C)C)c(O)c(C(C)(C)C)c1`, for which the GI50 in the experiment on Hs-578T is 22.6 µM (inactive); in the experiment on HCT-116 it was 36.9 µM (inactive); with MDA-MB-435, 36.3 µM (inactive); in the experiment with MCF7, 16.5 µM (inactive); in the experiment with UACC-257, 15.3 µM (inactive); in the experiment with A549, 23.2 µM (inactive). Moreover, the GI50 is 30.3 µM (inactive) in the experiment with OVCAR-8; > 100 µM (inactive) in the experiment with OVCAR-5; 16.8 µM (inactive) with ACHN; 15.9 µM (inactive) with NCI-H522; 18.9 µM (inactive) in the experiment with SN12C; 20.2 µM (inactive) in the experiment on SW-620. Moreover, the GI50 in the experiment on CAKI-1 was 23.1 µM (inactive); with NCI-H23 it was 34.7 µM (inactive); in the experiment with NCI/ADR-RES, 65.3 µM (inactive); in the experiment with TK-10, 35.1 µM (inactive); with SK-MEL-28 it was 28.1 µM (inactive); with UACC-62 it was 54.1 µM (inactive).
Take `NC(Cc1c[nH]c2ccc([N+](=O)[O-])cc12)C(=O)O` (centres undefined): the GI50 is 24.7 µM (inactive) in the experiment on Hs-578T; > 100 µM (inactive) with HCT-116; > 100 µM (inactive) in the experiment on MDA-MB-435; > 100 µM (inactive) in the experiment on MCF7; > 100 µM (inactive) in the experiment on UACC-257; > 100 µM (inactive) in the experiment with A549. Besides, the GI50 in the experiment with OVCAR-8, with OVCAR-5, with ACHN, in the experiment on NCI-H522, with SN12C and in the experiment with SW-620 was > 100 µM (inactive) throughout. Besides, the GI50 in the experiment on CAKI-1, with NCI-H23, in the experiment with NCI/ADR-RES, in the experiment on SNB-75, in the experiment on TK-10 and in the experiment on SK-MEL-28 was > 100 µM (inactive) each time. Further, the GI50 with UACC-62 is > 100 µM (inactive).
`Cc1cn(C(=O)NC23CC4CC(CC(C4)C2)C3)c(=O)[nH]c1=O`: the GI50 in the experiment with Hs-578T was 32.7 µM (inactive); in the experiment with HCT-116 it was 34.4 µM (inactive); in the experiment with MDA-MB-435, 61.4 µM (inactive); with MCF7, 31.6 µM (inactive); in the experiment with UACC-257 it was 45.1 µM (inactive); in the experiment on A549 it was 35.9 µM (inactive). The GI50 with OVCAR-8 is 32.7 µM (inactive); in the experiment on OVCAR-5 it was > 100 µM (inactive); in the experiment with ACHN, 27.9 µM (inactive); with SN12C it was 25.4 µM (inactive); in the experiment with SW-620, 40.6 µM (inactive); in the experiment on CAKI-1, 32.2 µM (inactive). The GI50 in the experiment with NCI-H23 was 32.1 µM (inactive); in the experiment with NCI/ADR-RES it was 27.4 µM (inactive); with SNB-75, 31.7 µM (inactive); in the experiment with TK-10, 32.8 µM (inactive); in the experiment on SK-MEL-28 it was 67.5 µM (inactive); in the experiment on UACC-62, 21.8 µM (inactive). Moreover, in the experiment on HOP-92, the GI50 is 51.6 µM (inactive).
As to `Sc1ccc2ccccc2c1CNCc1ccccc1`, the GI50 was 22.7 µM (inactive) in the experiment with Hs-578T; 13.8 µM (inactive) with HCT-116; 12.3 µM (inactive) in the experiment on MDA-MB-435; 13.7 µM (inactive) in the experiment on MCF7; 26.6 µM (inactive) with UACC-257; 25.3 µM (inactive) in the experiment with A549. Further, the GI50 with OVCAR-8 was 20.5 µM (inactive); in the experiment with OVCAR-5, 13.1 µM (inactive); with ACHN it was 19 µM (inactive); with NCI-H522 it was 4.93 µM (inactive); in the experiment with SN12C it was 6.24 µM (inactive); in the experiment on SW-620, 9.12 µM (inactive). For the same compound, the GI50 in the experiment with CAKI-1 was 15.7 µM (inactive); with NCI-H23, 14.5 µM (inactive); in the experiment on NCI/ADR-RES, 25.4 µM (inactive); in the experiment with SNB-75, 15.7 µM (inactive); in the experiment on TK-10, 30.8 µM (inactive); in the experiment with SK-MEL-28 it was 21.5 µM (inactive). Moreover, the GI50 with UACC-62 was 14.3 µM (inactive).
